The numbers were not newly measured in patent publication US20240260569A1, “DISINFECTANT LIQUID, PREPARATION METHOD THEREOF AND FILM LAYER” (Shanghai Anpas New Materials Science & Technology Co., Ltd., priority 2021, published 2024), which cites them from elsewhere.

Read-outs that look alike come from different tables or passages of the source.

For series [1] the following is noted: aqueous solution.
For series [2] the following is noted: relative to hypochlorite ions.

For the compound `O=c1nc([O-])n(Cl)c(=O)n1Cl.[Na+]` [Sodium dichloroisocyanurate], the active chlorine loss result in series [1] (within a week) is recorded as “about 50%”.
For `OCl` [hypochlorous acid], the “disinfection and sterilization ability versus hypochlorite ions” value in series [2] is 80 to 100 times.
Consider `OCl` [sodium hypochlorite], for which the “pH of a 10% solution” value is “around 12”. Further, the active chlorine loss in series [1] (pH 9.4, after 14 days at 55° C.) is on record as 63%. The active chlorine loss in series [1] (pH=8.7, after 14 days at 55° C.) is 94%.
